Assay results reported in PubChem BioAssay (NCI).
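How tested: cells in 96-well plates exposed to compound for 48 hours at five concentrations. GI50 is the concentration that inhibits growth by half. TGI: total growth inhibition.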

Key:
Test in all cases: NCI tumour cell line growth inhibition, 48 h
[1] = tested on: A549 NSCLC
[2] = tested on: SNB-19 CNS
[3] = tested on: SF-539 CNS
[4] = tested on: KM12 colon
[5] = tested on: COLO 205 colon
[6] = tested on: IGROV1 ovarian
[7] = tested on: 786-0 renal
[8] = tested on: MDA-MB-435
[9] = tested on: U251 CNS
[10] = tested on: SW-620 colon
[11] = tested on: RPMI-8226 leukemia
[12] = tested on: MDA-MB-231 breast
[13] = tested on: SK-MEL-2 melanoma
[14] = tested on: NCI-H226 lung
[15] = tested on: LOX IMVI melanoma
[16] = tested on: OVCAR-3 ovarian
[17] = tested on: RXF 393 renal
[18] = tested on: T-47D breast
[19] = tested on: ACHN renal
[20] = tested on: MCF7 breast
[21] = tested on: M14 melanoma
[22] = tested on: K-562 leukemia
[23] = tested on: CAKI-1 renal
[24] = tested on: SN12C renal
[25] = tested on: BT-549 breast
[26] = tested on: EKVX NSCLC
[27] = tested on: HCT-116 colon
[28] = tested on: SK-MEL-28 melanoma
[29] = tested on: DU-145 prostate
[30] = tested on: PC-3 prostate
[31] = tested on: MALME-3M melanoma
[32] = tested on: SR leukemia
[33] = tested on: HL-60(TB) leukemia
[34] = tested on: TK-10 renal
[35] = tested on: SK-MEL-5 melanoma
[36] = tested on: A498 renal
[37] = tested on: HS 578T breast
[38] = tested on: UO-31 renal
[39] = tested on: HOP-92 NSCLC
[40] = tested on: HOP-62 NSCLC
[41] = tested on: OVCAR-8 ovarian
[42] = tested on: SF-295 CNS
[43] = tested on: SF-268 CNS
[44] = tested on: OVCAR-4 ovarian
[45] = tested on: SK-OV-3 ovarian
[46] = tested on: UACC-62 melanoma
[47] = tested on: HT29 colon
[48] = tested on: HCT-15 colon
[49] = tested on: NCI-H522 lung
[50] = tested on: SNB-75 CNS
[51] = tested on: HCC-2998 colon
[52] = tested on: CCRF-CEM leukemia
[53] = tested on: NCI-H460 lung
[54] = tested on: NCI-H23 lung
[55] = tested on: UACC-257 melanoma
[56] = tested on: MOLT-4 leukemia
[57] = tested on: OVCAR-5 ovarian

With CC(c1ccccc1)N1C(=O)CSC1=S (stereo not drawn) as the compound, how does the GI50 [1] read?
The GI50 was 4670 nM.

What about the TGI [1] of the same compound?
The TGI was greater than 59100 nM.

And the GI50 [2]?
The GI50 was 302 nM.

What about the TGI [2] of the same compound?
The TGI was 1100 nM.

What about the GI50 [3] of the same compound?
Its GI50 is 228 nM.

And the GI50 [4]?
Its GI50 is 49.5 nM.

What about the TGI [4] of the same compound?
Its TGI is 438 nM.

What about the GI50 [5] of the same compound?
Its GI50 is 300 nM.

And the TGI [5]?
Its TGI is 1080 nM.

And the GI50 [6]?
The GI50 was 129 nM.

What about the TGI [6] of the same compound?
Its TGI is 697 nM.

And the GI50 [7]?
The GI50 was 628 nM.

And the TGI [7]?
Its TGI is greater than 100000 nM.

And the GI50 [8]?
Its GI50 is 319 nM.

And the TGI [8]?
The TGI was 7210 nM.

What about the GI50 [9] of the same compound?
Its GI50 is 400 nM.

And the TGI [9]?
Its TGI is 16500 nM.

What about the GI50 [10] of the same compound?
Its GI50 is 418 nM.

What about the TGI [10] of the same compound?
Its TGI is greater than 38500 nM.

What about the GI50 [11] of the same compound?
Its GI50 is 382 nM.

And the TGI [11]?
Its TGI is 34200 nM.

And the GI50 [12]?
Its GI50 is 463 nM.

And the TGI [12]?
Its TGI is greater than 23800 nM.

What about the GI50 [13] of the same compound?
The GI50 was 604 nM.

What about the TGI [13] of the same compound?
Its TGI is 12400 nM.

And the GI50 [14]?
The GI50 was 3560 nM.

What about the TGI [14] of the same compound?
Its TGI is greater than 100000 nM.

What about the GI50 [15] of the same compound?
Its GI50 is 446 nM.

What about the TGI [15] of the same compound?
Its TGI is 19500 nM.

And the GI50 [16]?
Its GI50 is 232 nM.

And the TGI [16]?
Its TGI is 1230 nM.

What about the GI50 [17] of the same compound?
The GI50 was 747 nM.

And the TGI [17]?
Its TGI is 6270 nM.

What about the GI50 [18] of the same compound?
The GI50 was 4100 nM.

And the TGI [18]?
Its TGI is 70600 nM.

And the GI50 [19]?
The GI50 was 3610 nM.

And the TGI [19]?
The TGI was greater than 100000 nM.

And the GI50 [20]?
The GI50 was 58.3 nM.

What about the TGI [20] of the same compound?
The TGI was 13700 nM.

What about the GI50 [21] of the same compound?
The GI50 was 332 nM.

And the TGI [21]?
The TGI was 2990 nM.

And the GI50 [22]?
The GI50 was 346 nM.

What about the TGI [22] of the same compound?
The TGI was greater than 100000 nM.

What about the GI50 [23] of the same compound?
Its GI50 is 1330 nM.

What about the GI50 [24] of the same compound?
The GI50 was 701 nM.

What about the TGI [24] of the same compound?
The TGI was greater than 100000 nM.

What about the GI50 [25] of the same compound?
Its GI50 is 2460 nM.

What about the TGI [25] of the same compound?
The TGI was 36000 nM.

What about the GI50 [26] of the same compound?
Its GI50 is 7570 nM.

And the TGI [26]?
Its TGI is greater than 100000 nM.

And the GI50 [27]?
The GI50 was 137 nM.

And the TGI [27]?
Its TGI is 1380 nM.

And the GI50 [28]?
Its GI50 is 3520 nM.

And the TGI [28]?
The TGI was 54100 nM.

And the GI50 [29]?
Its GI50 is 379 nM.

What about the TGI [29] of the same compound?
Its TGI is 3660 nM.

And the GI50 [30]?
The GI50 was 989 nM.

And the TGI [30]?
Its TGI is greater than 100000 nM.

And the GI50 [31]?
The GI50 was 7390 nM.

And the TGI [31]?
Its TGI is greater than 100000 nM.

And the GI50 [32]?
Its GI50 is 109 nM.

What about the TGI [32] of the same compound?
Its TGI is greater than 100000 nM.

And the GI50 [33]?
The GI50 was 140 nM.

What about the TGI [33] of the same compound?
The TGI was 1450 nM.

What about the GI50 [34] of the same compound?
The GI50 was 8780 nM.

And the TGI [34]?
Its TGI is greater than 93300 nM.

And the GI50 [35]?
Its GI50 is 1860 nM.

What about the TGI [35] of the same compound?
The TGI was 9830 nM.

And the GI50 [36]?
Its GI50 is 7320 nM.

And the TGI [36]?
The TGI was 55300 nM.

And the GI50 [37]?
Its GI50 is 779 nM.

And the GI50 [38]?
Its GI50 is 5730 nM.

What about the TGI [38] of the same compound?
The TGI was greater than 83500 nM.

And the GI50 [39]?
The GI50 was 4290 nM.

What about the TGI [39] of the same compound?
The TGI was greater than 100000 nM.

What about the GI50 [40] of the same compound?
The GI50 was 526 nM.

What about the TGI [40] of the same compound?
The TGI was 14400 nM.

And the GI50 [41]?
Its GI50 is 2000 nM.

What about the TGI [41] of the same compound?
Its TGI is greater than 100000 nM.

What about the GI50 [42] of the same compound?
The GI50 was 2860 nM.

What about the GI50 [43] of the same compound?
The GI50 was 1010 nM.

And the TGI [43]?
The TGI was 45700 nM.

And the GI50 [44]?
Its GI50 is 1360 nM.

And the TGI [44]?
Its TGI is greater than 100000 nM.

And the GI50 [45]?
Its GI50 is 2390 nM.

And the TGI [45]?
Its TGI is greater than 81800 nM.

And the GI50 [46]?
The GI50 was 330 nM.

What about the TGI [46] of the same compound?
Its TGI is 10700 nM.

And the GI50 [47]?
The GI50 was 362 nM.

What about the GI50 [48] of the same compound?
Its GI50 is 659 nM.

What about the TGI [48] of the same compound?
The TGI was greater than 100000 nM.

And the GI50 [49]?
Its GI50 is 114 nM.

What about the TGI [49] of the same compound?
The TGI was 3810 nM.

What about the GI50 [50] of the same compound?
The GI50 was 2890 nM.

And the TGI [50]?
Its TGI is greater than 22200 nM.

What about the GI50 [51] of the same compound?
The GI50 was 3080 nM.

And the TGI [51]?
Its TGI is 8860 nM.

What about the GI50 [52] of the same compound?
The GI50 was 941 nM.

What about the TGI [52] of the same compound?
The TGI was greater than 100000 nM.

What about the GI50 [53] of the same compound?
The GI50 was 970 nM.

What about the GI50 [54] of the same compound?
The GI50 was 6820 nM.

And the TGI [54]?
Its TGI is greater than 46000 nM.

What about the GI50 [55] of the same compound?
Its GI50 is 3220 nM.

What about the TGI [55] of the same compound?
The TGI was 33800 nM.

What about the GI50 [56] of the same compound?
The GI50 was 1750 nM.

What about the TGI [56] of the same compound?
The TGI was greater than 100000 nM.

And the GI50 [57]?
Its GI50 is 4050 nM.

What about the TGI [57] of the same compound?
The TGI was 49400 nM.
